Laboratory results taken from patent publication US20020137929A1, “1 - (3-heterocyclylphenyl) isothiourea, -isourea, -guanidine and -amidine herbicidal agents” (Intellectual Property Department, BASF Aktiengesellschaft, priority 1998, published 2002).

Legend:
ABUTH (Velvetleaf) = assay: Postemergence herbicidal evaluation; format: in vivo, Abutilon theophrasti
In short: (§1)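 Two-week-old seedlings sprayed with compound in 50/50 acetone/water plus 0.5% TWEEN 20, at about 0.0156 to 0.500 kg/ha, nozzle at 40 psi. Kept in greenhouse; rated visually 4-5 weeks after treatment on a 0-9 scale versus control, repeat tests averaged.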

[1] = system: IPOHE (Morningglory, Ivyleaf); assay: Postemergence herbicidal evaluation; format: in vivo, Ipomoea hederacea
In short: as §1

[2] = system: TRZAWR (Wheat, Winter, cv Riband); assay: Postemergence herbicidal evaluation; format: in vivo, Triticum aestivum
In short: as §1

[3] = system: CHEAL (Lambsquarters, Common); assay: Preemergence herbicidal evaluation; format: in vivo, Chenopodium album; settings: rated 4-5 weeks after treatment
In short: (§2)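 Preemergence soil application of compound, sprayed in aqueous acetone at rates equivalent to about 0.0156 to 0.500 kg per hectare onto freshly sown cups. Plant response was judged by eye on a 0-9 scale four to five weeks later.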

[4] = system: IPOHE (Morningglory, Ivyleaf); assay: Preemergence herbicidal evaluation; format: in vivo, Ipomoea hederacea; settings: rated 4-5 weeks after treatment
In short: as §2

ECHCG (Barnyardgrass) = assay: Preemergence herbicidal evaluation; format: in vivo, Echinochloa crus-galli; settings: rated 4-5 weeks after treatment
In short: as §2

SETVI (Foxtail, Green) = assay: Preemergence herbicidal evaluation; format: in vivo, Setaria viridis; settings: rated 4-5 weeks after treatment
In short: as §2

ORYSAT (Rice, Tebonnet) = assay: Preemergence herbicidal evaluation; format: in vivo, Oryza sativa, (L.) Tebonnet; settings: rated 4-5 weeks after treatment
In short: as §2

[5] = system: TRZAWR (Wheat, Winter, cv Riband); assay: Preemergence herbicidal evaluation; format: in vivo, Triticum aestivum; settings: rated 4-5 weeks after treatment
In short: as §2

[6] = system: ECHORC (Watergrass (Calif.)); assay: Preemergence weed control under flooded paddy conditions; format: in vivo, Echinochloa oryzoides; settings: rated 3-4 weeks after treatment
In short: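 Seeds or propagules sown in top 0.5 cm of silt loam soil, flooded 1.5 to 3 cm above surface throughout. Compound in 50/50 v/v aqueous/acetone pipetted into flood water at about 0.0313 to 0.500 kg/ha. Visual 0-9 rating versus control after three to four weeks in greenhouse.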

MOOVA (Monochoria) = assay: as above; format: in vivo, Monochoria vaginalis; settings: rated 3-4 weeks after treatment
In short: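 Silt loam, seeds in top 0.5 cm; flood held 1.5-3 cm; test cpd as acetone/water 50/50 into flood water, ~0.0313-0.500 kg/ha a.i.; greenhouse 3-4 wk; visual 0-9 score vs control.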

[7] = system: ECHORC (Watergrass (Calif.)); assay: Postemergence weed control under flooded paddy conditions; format: in vivo, Echinochloa oryzoides; settings: postemergence weeds, 3-4 weeks after treatment
In short: (§3)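 Weeds 3 to 5 cm tall and rice seedlings at the 1.5 to 2.5 leaf stage were flooded, with water held 1.5 to 3 cm above the soil. Compounds in 50/50 v/v aqueous/acetone went into the flood water at about 0.0313 to 0.500 kg/ha. Visual 0-9 ratings versus control were made 3 to 4 weeks later.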

CYPIR (Rice Flatsedge) = assay: as above; format: in vivo, Cyperus iria; settings: postemergence weeds, 3-4 weeks after treatment
In short: as §3

**Q.** Which results are given for CCOC(=O)CN1C(=O)C(Cc2ccccc2OC(C)C(=O)OC)SC1=Nc1cc(-n2c(=O)cc(C(F)(F)F)n(C)c2=O)c(F)cc1Cl (stereo not shown) [Compound 50, 2-{{2-Chloro-5-[3,6-dihydro-3-methyl-2,6-dioxo-4-(trifluoromethyl)-1(2H)-pyrimidinyl]-4-fluoro-phenyl}imino}-5-(o-hydroxybenzyl)-4-oxo-3-thiazolidineacetic acid, ethyl ester, ester with methyl lactate]?
**A.** Postemergence herbicidal rating ABUTH (ABUTH (Velvetleaf); Rate 0.0156 kg/ha): 6.0; Postemergence herbicidal rating ABUTH (ABUTH (Velvetleaf); Rate 0.0313 kg/ha): 9.0; Postemergence herbicidal rating ABUTH (ABUTH (Velvetleaf); Rate 0.0625 kg/ha): 9.0; Postemergence herbicidal rating IPOHE ([1]; Rate 0.0156 kg/ha): 9.0; Postemergence herbicidal rating IPOHE ([1]; Rate 0.0313 kg/ha): 9.0; Postemergence herbicidal rating IPOHE ([1]; Rate 0.0625 kg/ha): 9.0; Postemergence herbicidal rating TRZAWR ([2]; Rate 0.0156 kg/ha): 3.0; Postemergence herbicidal rating TRZAWR ([2]; Rate 0.0313 kg/ha): 3.5; Postemergence herbicidal rating TRZAWR ([2]; Rate 0.0625 kg/ha): 4.5; Preemergence herbicidal rating CHEAL ([3]; rate 0.0625 kg/ha): 0.0; Preemergence herbicidal rating CHEAL ([3]; rate 0.1250 kg/ha): 9.0; Preemergence herbicidal rating CHEAL ([3]; rate 0.2500 kg/ha): 9.0; Preemergence herbicidal rating IPOHE ([4]; rate 0.0625 kg/ha): 0.0; Preemergence herbicidal rating IPOHE ([4]; rate 0.1250 kg/ha): 0.0; Preemergence herbicidal rating IPOHE ([4]; rate 0.2500 kg/ha): 0.0; Preemergence herbicidal rating ECHCG (ECHCG (Barnyardgrass); rate 0.0625 kg/ha): 0.0; Preemergence herbicidal rating ECHCG (ECHCG (Barnyardgrass); rate 0.1250 kg/ha): 0.0; Preemergence herbicidal rating ECHCG (ECHCG (Barnyardgrass); rate 0.2500 kg/ha): 0.0; Preemergence herbicidal rating SETVI (SETVI (Foxtail, Green); rate 0.0625 kg/ha): 0.0; Preemergence herbicidal rating SETVI (SETVI (Foxtail, Green); rate 0.1250 kg/ha): 0.0; Preemergence herbicidal rating SETVI (SETVI (Foxtail, Green); rate 0.2500 kg/ha): 0.0; Preemergence herbicidal rating ORYSAT (ORYSAT (Rice, Tebonnet); rate 0.0625 kg/ha): 0.0; Preemergence herbicidal rating ORYSAT (ORYSAT (Rice, Tebonnet); rate 0.1250 kg/ha): 0.0; Preemergence herbicidal rating ORYSAT (ORYSAT (Rice, Tebonnet); rate 0.2500 kg/ha): 0.0; Preemergence herbicidal rating TRZAWR ([5]; rate 0.0625 kg/ha): 0.0; Preemergence herbicidal rating TRZAWR ([5]; rate 0.1250 kg/ha): 0.0; Preemergence herbicidal rating TRZAWR ([5]; rate 0.2500 kg/ha): 0.0; Herbicidal rating ECHORC ([6]; 0.0313 kg/ha): 4.0; Herbicidal rating ECHORC ([6]; 0.0625 kg/ha): 7.0; Herbicidal rating ECHORC ([6]; 0.1250 kg/ha): 7.0; Herbicidal rating ECHORC ([6]; 0.2500 kg/ha): 7.0; Herbicidal rating MOOVA (MOOVA (Monochoria); 0.0313 kg/ha): 0.0; Herbicidal rating MOOVA (MOOVA (Monochoria); 0.0625 kg/ha): 0.0; Herbicidal rating MOOVA (MOOVA (Monochoria); 0.1250 kg/ha): 3.0; Herbicidal rating MOOVA (MOOVA (Monochoria); 0.2500 kg/ha): 7.0; Herbicidal rating ECHORC ([7]; rate 0.0313 kg/ha): 4.0; Herbicidal rating ECHORC ([7]; rate 0.0625 kg/ha): 7.0; Herbicidal rating ECHORC ([7]; rate 0.1250 kg/ha): 7.0; Herbicidal rating ECHORC ([7]; rate 0.2500 kg/ha): 7.0; Herbicidal rating CYPIR (CYPIR (Rice Flatsedge); rate 0.0313 kg/ha): 0.0; Herbicidal rating CYPIR (CYPIR (Rice Flatsedge); rate 0.0625 kg/ha): 0.0; Herbicidal rating CYPIR (CYPIR (Rice Flatsedge); rate 0.1250 kg/ha): 0.0; Herbicidal rating CYPIR (CYPIR (Rice Flatsedge); rate 0.2500 kg/ha): 0.0
